{"source": "patent US20150133297A1", "about": "“NEW ANTIFUNGAL COMPOSITIONS” (DSM IP ASSETS B.V., priority 2012, published 2015)", "test_system": "Botrytis cinerea", "experiment": "Treatment of sweet peppers (Example 10)", "assay_type": "in vivo", "conditions": "20° C., 150 ppm spiroxamine or both", "protocol": "Ten fresh, organic sweet peppers were used per treatment. Each sweet pepper was soaked in a 180 ppm hypochlorite solution for 10 minutes, then rinsed thoroughly with fresh tap water and dried. The peel of each disinfected sweet pepper was wounded once using a cork borer according to the method described by de Lapeyre de Bellaire and Dubois (1987). Subsequently, each wound was inoculated with 10 μl of a Botrytis cinerea suspension containing 1×10^5 of spores/ml. After incubation for 3 hours at 20° C., each wound and the skin area of 0.5 cm around the wound was treated with in total 75 μl of a freshly prepared aqueous antifungal composition comprising either 200 ppm natamycin (DSM Food Specialties, Delft, The Netherlands), 150 ppm spiroxamine or both. […]\nThe treated sweet peppers were incubated in a closed box in the dark at 20° C. and assessed on mould growth during incubation. The antifungal activity (in %) of the individual and combined active ingredients was determined by calculating the reduction in mould growth observed on the sweet peppers treated with the antifungal composition in comparison to the mould growth on the sweet peppers treated with the control composition according to the Colby method (Colby, 1967) as described in Example 5.", "data": [{"smiles": "CCCN(CC)CC1COC2(CCC(C(C)(C)C)CC2)O1", "note": "(centres unmarked) [Spiroxamine, spiroxamine]", "values": [{"measurement": "Observed antifungal activity O (%)", "setting": "day 12, 200 ppm natamycin", "value": 0, "unit": "%"}, {"measurement": "Observed antifungal activity O (%)", "setting": "day 13, 200 ppm natamycin", "value": 0, "unit": "%"}]}]}
